Among the data in patent US20250109140A1, “5-[5-(PIPERIDIN-4-YL)THIENO[3,2-C]PYRAZOL-2-YL]INDAZOLE DERIVATIVES AND RELATED COMPOUNDS AS MODULATORS FOR SPLICING NUCLEIC ACIDS AND FOR THE TREATMENT OF PROLIFERATIVE DISEASES” (REMIX THERAPUTICS INC., priority 2022, published 2025) are EC50 and IC50 values, retold here.

Like-named read-outs stand apart in the source and are kept apart here.

One assay concerns HTT mRNA. Description: Splicing RT-qPCR assay, HTT canonical (CJ) and alternative (AJ) junction mRNA. It counts as cell-based. The conditions noted are these: Homo sapiens; for EC50: AC50 = 50% response in AJ mRNA increase. The gist of the method: (§1)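 A673 or K562 cells were exposed for 24 h at 37 °C to an 11-point 3-fold dilution series (top 10 uM final, DMSO ≤0.25%). Lysates were analysed by one-step RT-qPCR for canonical (CJ) and alternative (AJ) junctions. Values were normalized to GAPDH, GUSB or PPIA and to DMSO (ΔΔCt), then converted to percentage response.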
(In general: In qPCR the cycle at which signal appears reflects the starting amount.)

A further assay deals with MYB mRNA. Description: Splicing RT-qPCR assay, MYB canonical (CJ) and alternative (AJ) junction mRNA. Type of assay: cell-based. The conditions noted are these: Homo sapiens; for EC50: AC50 = 50% response in AJ mRNA increase. The gist of the method:
as §1

Another assay deals with SMN2 mRNA. Description: Splicing RT-qPCR gene panel, SMN2 canonical junction (CJ) mRNA. Type of assay: cell-based. The conditions noted are these: Homo sapiens; Table 8; larger gene panel, decrease in CJ mRNA levels. The gist of the method:
as §1

A further assay has as its system Target C mRNA. Description: Splicing RT-qPCR gene panel, Target C canonical junction (CJ) mRNA. The conditions noted are these: Homo sapiens; Table 8; larger gene panel, decrease in CJ mRNA levels. Type of assay: cell-based. A digest of the protocol: as §1
The next assay relates to HiBiT-tagged MYB protein. The experiment in a line: HiBiT protein abundance assay, MYB (K562 HiBiT knock-in cells). It counts as cell-based, human. The conditions noted are these: 24 hours treatment. The procedure:
(§2) Compounds described herein were used to screen for effects on quantitative protein abundance using a HiBit assay system (Promega). Quantitative protein abundance was determined by measuring the protein levels of HiBit-tagged protein targets expressed in cell culture via luminescence using the Nano-Glo HiBiT Lytic Detection System, which uses a split complementation assay format to reconstitute NanoBiT enzyme to generate a luminescent signal. A protein abundance assay was developed such that endogenous protein targets could be modified with the HiBiT peptide tag and their abundance could be assessed after compound treatment. Briefly, K562 cell lines containing a HiBiT-modification were treated with various compounds described herein (e.g., compounds of Formulas (I), or (II)). After treatment for 24 hours, the protein abundance of a specific target was determined by measuring luminescence.
(§3) Cells were maintained in IMDM with 10% FBS. Before the assay, cells were diluted with […] growth media (IMDM+[…] media) and were seeded in a 384-well plate at a density of 10000 cells/well (for each cell line listed in Table 6). Each compound was prepared as a 10-point 3-fold serial dilution in DMSO with the top dose at a final concentration of […] in the well. Unmodified K562 cells were added at the previously specified density with DMSO to serve as an assay baseline and positive control (PC) and DMSO only with the respective modified cell lines was added to the negative control (NC) columns. Final DMSO concentration was kept at or below 0.25%. Treated cell plates were placed in an incubator at 37° C. with […] for 24 hours. After 24 hours, 25 μL of Complete HiflitLytic reagent was added to each well at room temperature (e.g. one plate requiring 10 mL Lytic Buffer, 100 μL LgBiT Protein, 200 μL Lytic Substrate), shaken for 5 minutes at 600 RPM, then left to sit for 10 minutes for signal to stabilize before reading on a Spark Cyto plate reader (Tecan) with a 500 ms measurement time.
(§4) To determine compound effects on protein abundance of each target in Table 6, the percent response for each respective cell line was calculated at each compound concentration as follows:
(§5) For the normalized response at each concentration, a four-parameter logistical regression was fit to the data and the response was interpolated at the 50% value to determine a concentration for protein abundance at 50% (IC50) the untreated control.
A general note: The HiBiT peptide binds its large partner to form an active luciferase.

The test system of another assay is HiBiT-tagged HTT protein. The experiment in a line: HiBiT protein abundance assay, HTT (K562 HiBiT knock-in cells). It counts as cell-based, human. The conditions noted are these: 24 hours treatment. As for the experimental part:
as §2, §3, §4, §5

For assay [1], the system named is K562 (human chronic myelogenous leukemia) cells. The experiment in a line: Cell viability, Cell Titer Glo 2.0 assay, K562 cells. Type of assay: cell-based. The conditions noted are these: 72 hours. As for the experimental part: Compounds described herein were screened for toxicity in K562 (human chronic myelogenous leukemia) and SH-SY5Y (human neuroblastoma) cells using a Cell Titer Glo 2.0 assay.
Cells were plated at 500 cells/well (K562 cells) in 45 μL of IMDM supplemented with 10% FBS in a 384-well opaque plate. Wells containing only medium were used as a blank control. Test compounds (e.g., compounds of Formula (I), (III), (IV), (V), or (VI)) were first serially diluted in DMSO then diluted 1:100 with IMDM+10% FBS. The final concentration of DMSO was 0.1% in each well. The cells were incubated for 72 hours at 37° C. and 5% CO2 before assaying with Cell Titer Glo 2.0 reagent.

The next assay deals with Target C. Description: HiBiT protein abundance assay, Target C (K562 HiBiT knock-in cells). It counts as cell-based, human. The conditions noted are these: 24 hours treatment. The procedure:
• Promega Nano-Glo HiBiT Lytic Detection System (cat #N3030) • Corning 384-well TC-treated microplates (cat #3570) • Synthego Engineered Cells Knock-In Clones
as §3, §4, §5

The mark [2] stands for this setting: Table 7, RT-qPCR, A673 or K562 cells, 24 hours treatment.
The mark [3] stands for this setting: Table 7, IC50 = 50% response in CJ mRNA decrease, RT-qPCR, A673 or K562 cells, 24 hours treatment, read-out: HTT CJ.
Setting [4] is: Table 8, larger gene panel, decrease in CJ mRNA levels, read-out: HTT CJ IC50.
Setting [5] is: Table 7, IC50 = 50% response in CJ mRNA decrease, RT-qPCR, A673 or K562 cells, 24 hours treatment, read-out: MYB CJ.
Setting [6] is: Table 8, larger gene panel, decrease in CJ mRNA levels, read-out: MYB CJ IC50.

By EC50 is commonly meant the concentration at which the effect is half-maximal. Low readings indicate a more potent agent, high ones a less potent agent. Turning to `Cn1cc2cc(-c3cc4cn(C5CCNCC5)nc4s3)cc(F)c2n1` [Compound 122, 7-fluoro-2-methyl-5-[2-(piperidin-4-yl)thieno[2,3-c]pyrazol-5-yl]indazole], the figures for the EC50 with HTT mRNA (setting [2]) and in the assay with MYB mRNA (setting [2]) were less than 0.1 µM and 0.1 to 1 µM, respectively. Further, the IC50 in the assay on HTT mRNA (setting [3]) was less than 0.1 µM; in the assay on HTT mRNA (setting [4]), less than 0.1 µM; with MYB mRNA (setting [5]), less than 0.1 µM; in the assay with MYB mRNA (setting [6]), 0.1 to 1 µM; in the assay on SMN2 mRNA it was less than 0.1 µM; in the assay with Target C mRNA, less than 0.1 µM. The IC50 (with HiBiT-tagged MYB protein; with HiBiT-tagged HTT protein; in assay [1]; in the assay on Target C) was less than 0.1 µM each time.
For `Cc1cn2cc(-c3cc4cn(C5CCNCC5)nc4s3)ncc2n1` [Compound 223], the 50% effective concentration (EC50) in the assay with HTT mRNA (setting [2]) and with MYB mRNA (setting [2]) was 1 to 10 µM each time. The IC50 is 1 to 10 µM in the assay with HTT mRNA (setting [3]); 1 to 10 µM in the assay on HTT mRNA (setting [4]); 1 to 10 µM in the assay on MYB mRNA (setting [5]); 1 to 10 µM with MYB mRNA (setting [6]); 0.1 to 1 µM with SMN2 mRNA; 1 to 10 µM in the assay with Target C mRNA. For the same compound, the IC50 (in the assay on HiBiT-tagged MYB protein; with HiBiT-tagged HTT protein; in assay [1]; in the assay with Target C) was 1 to 10 µM in each case.
On to `Cc1cn2cc(-n3cc4cc(C5CCNCC5)sc4n3)cc(F)c2n1` [Compound 156], for which the results for the EC50 with HTT mRNA (setting [2]) and with MYB mRNA (setting [2]) were 0.1 to 1 µM and 1 to 10 µM, respectively. Besides, the IC50 with HTT mRNA (setting [3]) was less than 0.1 µM; in the assay with HTT mRNA (setting [4]), 0.1 to 1 µM; in the assay on MYB mRNA (setting [5]), 0.1 to 1 µM; with MYB mRNA (setting [6]), 1 to 10 µM; with SMN2 mRNA it was less than 0.1 µM; with Target C mRNA it was 0.1 to 1 µM. Further, the IC50 with HiBiT-tagged MYB protein was 0.1 to 1 µM; with HiBiT-tagged HTT protein it was less than 0.1 µM; in assay [1] it was 0.1 to 1 µM; with Target C, less than 0.1 µM.
Take `COc1c(-c2cc3cn(C4CCNCC4)nc3s2)cc2cn(C)nc2c1F` [Compound 218]: the EC50 in the assay on HTT mRNA (setting [2]) and in the assay with MYB mRNA (setting [2]) was 0.1 to 1 µM each time. The IC50 with HTT mRNA (setting [3]) is less than 0.1 µM; with HTT mRNA (setting [4]) it was 0.1 to 1 µM; in the assay with MYB mRNA (setting [5]), 0.1 to 1 µM; in the assay with MYB mRNA (setting [6]) it was 0.1 to 1 µM; with SMN2 mRNA, less than 0.1 µM; in the assay on Target C mRNA, 0.1 to 1 µM. Further, the IC50 was 0.1 to 1 µM in the assay on HiBiT-tagged MYB protein, less than 0.1 µM in the assay on HiBiT-tagged HTT protein, 0.1 to 1 µM in assay [1] and 0.1 to 1 µM with Target C.
Regarding `Cc1cn2cc(-n3cc4sc(C5CCNCC5)cc4n3)ncc2n1` [Compound 169], the EC50 in the assay on HTT mRNA (setting [2]) and in the assay on MYB mRNA (setting [2]) was 1 to 10 µM each time. Further, the IC50 with HTT mRNA (setting [3]), in the assay with HTT mRNA (setting [4]), in the assay on MYB mRNA (setting [5]), in the assay with MYB mRNA (setting [6]), in the assay with SMN2 mRNA and in the assay with Target C mRNA was 1 to 10 µM each time. For the same compound, the IC50 (in the assay with HiBiT-tagged MYB protein; in the assay with HiBiT-tagged HTT protein; in assay [1]; with Target C) was 1 to 10 µM each time.
Consider `Cc1cn2cc(-c3cc4cn(C5CCNCC5)nc4s3)cc(F)c2n1` [Compound 229], for which the EC50 in the assay with HTT mRNA (setting [2]) is less than 0.1 µM; in the assay on MYB mRNA (setting [2]), 0.1 to 1 µM. Further, the IC50 was less than 0.1 µM in the assay on HTT mRNA (setting [3]); less than 0.1 µM with HTT mRNA (setting [4]); 0.1 to 1 µM in the assay on MYB mRNA (setting [5]); 0.1 to 1 µM in the assay on MYB mRNA (setting [6]); less than 0.1 µM in the assay on SMN2 mRNA; 0.1 to 1 µM in the assay with Target C mRNA. Besides, the IC50 with HiBiT-tagged MYB protein is 0.1 to 1 µM; in the assay with HiBiT-tagged HTT protein, less than 0.1 µM; in assay [1], 0.1 to 1 µM; in the assay on Target C it was less than 0.1 µM.
In the case of `Cn1cc2cc(-c3cc4cn(C5CCNCC5)nc4s3)ccc2n1` [Compound 207], the values for the EC50 with HTT mRNA (setting [2]) and in the assay with MYB mRNA (setting [2]) were 0.1 to 1 µM and 1 to 10 µM, respectively. The IC50 in the assay on HTT mRNA (setting [3]) was 0.1 to 1 µM; with HTT mRNA (setting [4]) it was 0.1 to 1 µM; in the assay with MYB mRNA (setting [5]) it was 1 to 10 µM; in the assay with MYB mRNA (setting [6]), 1 to 10 µM; in the assay on SMN2 mRNA, less than 0.1 µM; in the assay on Target C mRNA, 1 to 10 µM. Also, the IC50 was 1 to 10 µM with HiBiT-tagged MYB protein, less than 0.1 µM in the assay with HiBiT-tagged HTT protein, 1 to 10 µM in assay [1] and 0.1 to 1 µM in the assay with Target C.
